Results taken from US20210379106A1, “OXABICYCLOHEPTANES FOR ENHANCING CAR T CELL FUNCTION” (Lixte Biotechnology, Inc., priority 2018, published 2021).

How the values were obtained:
[1] = molecular target: PP2A (Homo sapiens, UniProt P67775); settings: cited from earlier work
[2] = system: CD19 CAR T cells; assay: IFNγ intracellular staining / flow cytometry of CD19CAR T cells after co-culture with CD19+ tumor cells; type: cell-based; settings: for percentage of CAR+/CD8+/INFγ+: 0.5 μM LB-100, 1.0 μg/mL Nivo
Description: FIG. 1. Generation of CD19 CAR T cells PBMC from healthy donor were activated with CD3/CD28 beads and transduced with lentivirus encoding second generation of CD19CAR containing costimulatory signaling CD28. After 14 days of ex vivo expansion, percentages of CD8 and CAR positive T cells were determined by flow cytometry.
(§1) FIG. 2. […] Post treatment, 0.1×10^6 CD19 CART cells were then co-cultured with 0.1×10^6 different CD19+ tumor cells for 24 hours followed by surface staining of CAR and CD8 and intracellular staining of IFN-γ. Percentages of IFNγ+CD8+ CAR T cells in gated CAR positive population are presented.
FIG. 3. […] Post treatment, 0.1×10^6 CD19CAR T cells were then co-cultured with 0.1×10^6 CD19+Daudi lymphoma cells for 24 hours followed by surface staining of CAR and CD8 and intracellular staining of IFN-γ. Percentages of IFN-γ+CD8+ CAR T cells (A) and FACS plots (B) in gated CAR positive population are presented.
as §1, with “4.” for “2.”, “CD19CAR T” for “CD19 CART”, “IFN-γ. Myeloid leukemic cells (KG1a) were used as negative control.” for “IFN-γ.”, “IFN-γ+CD8+” for “IFNγ+CD8+”
We assessed the effects of LB-100 and Nivo on CD19 CART cell function. Propagated CD19CAR T cells were stimulated with dynal beads coated with antibody against CD19 (FMC63) at 1:1 ratio for five days and cultured under the following conditions: CD19CAR T cell alone, CD19CAR+ 0.5 μM LB-100, CD19CAR+ 1.0 μg/mL Nivo, and CD19CAR with combination of LB-100 and Nivo. Drugs were supplemented into the culture every other day. Functional assay was performed six days after treatment. The cells were then co-cultured with the different CD19+ ALL cells SupB15 and different lymphoma Daudi and Raji cells overnight. Cells were then stained for Interferon-gamma (IFNγ) followed by flow cytometry analysis. Acute myeloid leukemia (AML) cells KG1a were used as negative controls. […] To test the antitumor activity of the combinatorial therapy in vivo we established an acute lymphoid leukemia (ALL) model by inoculating SupB15-GFP-ffluc cells into NSG mice, 5 days after tumor engraftment, mice were treated with CD19CAR T cells by intravenous injection, along with intraperitoneally injections of LB100 (4 μg/mouse), Nivo (200 μgm/mouse) or LB100+Nivo every other day as combination therapy.

[3] = system: cell lines from a variety of human solid tumors; settings: cited from earlier work
[4] = system: solid tumor; settings: largest phase 1 trial, cited from earlier work

Sequence of PP2A (P67775 whole entry): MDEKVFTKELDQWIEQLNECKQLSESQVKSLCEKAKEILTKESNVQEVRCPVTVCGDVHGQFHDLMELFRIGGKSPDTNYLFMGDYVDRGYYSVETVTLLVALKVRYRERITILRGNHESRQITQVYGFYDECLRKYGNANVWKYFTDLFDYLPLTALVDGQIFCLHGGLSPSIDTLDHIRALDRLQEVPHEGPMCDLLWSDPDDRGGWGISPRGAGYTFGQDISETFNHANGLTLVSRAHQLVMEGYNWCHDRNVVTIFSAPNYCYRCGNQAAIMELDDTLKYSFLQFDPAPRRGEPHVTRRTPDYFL

In the case of C[C@@]12C(=O)OC(=O)[C@]1(C)[C@H]1CC[C@@H]2O1 [Cantharidin], the “inhibition of PP2A” value [1] is given as “potent inhibitor of PP2A”.

For CN1CCN(C(=O)C2C(C(=O)O)[C@H]3CC[C@@H]2O3)CC1 (stereo partly shown) [LB-100], the “effector function of CD19CAR T cells (IFNγ+CD8+ CAR T cells)” value ([2]; FIG. 2, CD19 antibody coated beads, different concentrations of LB100 on days 1, 3 and 5, different CD19+ tumor cells 24 hours) was “improves effector function of CD19CAR T cells in a dose dependent manner”, the “percentage of CAR+/CD8+/INFγ+” value ([2]; co-cultured with Daudi cells overnight, CD19 antibody bead stimulation) was 10.99% and the “percentage of CAR+/CD8+/INFγ+” value ([2]; co-cultured with Raji cells overnight, CD19 antibody bead stimulation) was 10.30%. The “percentage of CAR+/CD8+/INFγ+” value ([2]; co-cultured with SupB15 cells overnight, CD19 antibody bead stimulation) was 10.14%, the “percentage of CAR+/CD8+/INFγ+” value ([2]; corresponding treatment, co-cultured with KG1A AML cells (negative control)) was 6.33% and the “percentage of CAR+/CD8+/INFγ+” value ([2]; corresponding treatment, media alone (no tumor cells)) was 7.28%. The “inhibition of PP2A” value [1] was “potent inhibitor of PP2A” and the “proliferation of cell lines” value [3] was “inhibit proliferation”.

In the case of CCN1CCCC1CNC(=O)c1cc(S(=O)(=O)CC)c(NC)cc1OC (stereo not shown) [LB-102], the “proliferation of cell lines” value [3] is listed as “inhibit proliferation”.

In the case of C[C@@](O)(/C=C/[C@H]1CC=CC(=O)O1)[C@@H](C[C@@H](O)\C=C/C=C\C=C\CO)OP(=O)(O)O [fostriecin, Fostriecin], the “dose-limiting toxicity (DLT)” value ([4]; 46 solid tumor patients) is given as “without dose-limiting toxicity” and the “disease stability, share of solid tumor patients” value ([4]; 16 of 46 patients) is given as 34.8%.

For O=C1OC(=O)[C@H]2[C@@H]1[C@@H]1CC[C@H]2O1 [norcantharidin], the “inhibition of PP2A” value [1] is given as “potent inhibitorsof PP2A”.
